In patent publication US5776886A, “Intravaginal preparation containing physiologically active peptide” (Teikoku Seiyaku Kabushiki Kaisha, priority 1993, dated 1998):

Columns and labels:
Assay type in all cases: in vivo, Wistar rats
[1] = test system: calcium level in the serum; assay: Experiment 4: effects of the concentration of sucrose fatty acid ester on serum calcium reduction
Method: (§1) An intravaginal suppository was administered into the rat's vagina, and the blood was collected periodically (2, 4 and 6 hours after administration of the test preparation).
(§2) The serum was separated, and the calcium level in the serum was determined by using a kit for determination of calcium (Calcium C Test Wako; manufactured by Wako Pure Chemical Industries, Ltd.) (n=3).
Human calcitonin (2 mg) was precisely measured, and thereto were added citric acid (100 mg) and Ryoto-Sugar Ester S-970 (50 mg, 100 mg or 400 mg), and the mixture was mixed well.
In the same manner as in Experiment 1, each intravaginal suppository was administered to the rat's vagina, and the blood was collected periodically (2 and 4 hours after administration of intravaginal suppository), and the calcium level in the serum thereof was determined (n=3).

[2] = test system: calcium level in the serum; assay: Experiment 6: effects of the concentration of organic acid on serum calcium reduction; details: for Reduction rate (%) of calcium level in the serum: pH 3.5, + S-970, intravaginal suppository 20 μg, rats
Method: as §1, §2
(§3) In the same manner as in Experiment 1, each intravaginal suppository was administered to the rat's vagina, and the blood was collected periodically (2, 4 and 6 hours after administration of intravaginal suppository), and the calcium level in the serum thereof was determined (n=3).

[3] = test system: calcium level in the serum; assay: Experiment 5: sucrose fatty acid ester with various organic acids, serum calcium reduction; details: for Reduction rate (%) of calcium level in the serum: intravaginal suppository 20 μg, rats
Method: as §1, §2
In the same manner as in Experiment 1, each intravaginal suppository was administered to the rat's vagina, and the blood was collected periodically (2, 4 and 6 hours after administration of intravaginal suppository), and the calcium level in the serum thereof was determined (n=5).

[4] = test system: calcium level in the serum; assay: Experiment 2: effects of various bases on serum calcium reduction; details: for Reduction rate (%) of calcium level in the serum: S-970 + citric acid, intravaginal suppository 20 μg, rats
Method: as §1, §2
In the same manner as in Experiment 1, each intravaginal suppository was administered to the rat's vagina, and the blood was collected periodically (2, 4 and 6 hours after administration of intravaginal suppository), and the calcium level in the serum thereof was determined (n=4).

[5] = test system: calcium level in the serum; assay: Experiment 7: effects of pH of the solution in the suppository on serum calcium reduction; details: for Reduction rate (%) of calcium level in the serum: citric acid + S-970, intravaginal 20 μg, rats
Method: as §1, §2, §3

[6] = test system: calcium level in the serum; assay: Experiment 1: serum calcium reduction after human calcitonin intravaginal suppository, sucrose fatty acid ester plus citric acid vs each alone; details: for Reduction rate (%) of calcium level in the serum: intravaginal suppository 20 μg, ovariectomized rats
Method: To the mixture was added a commercially available base for intravaginal preparation; Witepsol S-55 (which is prepared from Witepsol E-85 so as to give a final intravaginal suppository having a melting point of 36.5° C., manufactured by Hils Co., Ltd., former Diamit Novel Co., Ltd) which was homogenized by previously warming and stirring thereof so as to give an intravaginal suppository with the total weight of 5.00 g. […] The mixture was poured into a tube (inside diameter: about 3 mm) made of teflon at about 40° C., cooled to solidify, and taken out from the tube. The solidified mixture was cut into pieces (weight: 50 mg) to give intravaginal suppositories for rats containing human calcitonin (20 μg/each). There were also obtained two kinds of intravaginal suppositories prepared by adding citric acid (50 mg) only, and prepared by adding a sucrose fatty acid ester (100 mg) only, likewise. There were obtained intravaginal suppositories containing only human calcitonin without citric acid nor a sucrose fatty acid ester, likewise, which are used as control.
as §1, §2

Human calcitonin
calcium level in the blood ([1]; sucrose fatty acid ester 1, 2 or 8 w/w % with citric acid): reduced at any concentration of the sucrose fatty acid ester to be used | Reduction rate (%) of calcium level in the serum ([1]; sucrose fatty acid ester (S-970) 1 w/w %, citric acid 100 mg per 5.00 g, intravaginal suppository 20 μg, rats, 2 hr): 10.8% | calcium level in the blood ([2]; citric acid 1, 2, 5 or 10 w/w % with sucrose fatty acid ester): reduced at any concentration of citric acid to be used | Reduction rate (%) of calcium level in the serum ([2]; organic acid (citric acid) 1 w/w %, 2 hr): 14.6% | Reduction rate (%) of calcium level in the serum ([2]; organic acid (citric acid) 1 w/w %, 4 hr): 15.7% | Reduction rate (%) of calcium level in the serum ([2]; organic acid (citric acid) 1 w/w %, 6 hr): 9.2% | Reduction rate (%) of calcium level in the serum ([2]; organic acid (citric acid) 2 w/w %, 2 hr): 15.3% | Reduction rate (%) of calcium level in the serum ([2]; organic acid (citric acid) 2 w/w %, 4 hr): 18.7% | Reduction rate (%) of calcium level in the serum ([2]; organic acid (citric acid) 2 w/w %, 6 hr): 8.2% | Reduction rate (%) of calcium level in the serum ([2]; organic acid (citric acid) 5 w/w %, 2 hr): 17.9% | Reduction rate (%) of calcium level in the serum ([2]; organic acid (citric acid) 5 w/w %, 4 hr): 19.4% | Reduction rate (%) of calcium level in the serum ([2]; organic acid (citric acid) 5 w/w %, 6 hr): 7.5% | Reduction rate (%) of calcium level in the serum ([2]; organic acid (citric acid) 10 w/w %, 2 hr): 18.4% | Reduction rate (%) of calcium level in the serum ([2]; organic acid (citric acid) 10 w/w %, 4 hr): 19.0% | Reduction rate (%) of calcium level in the serum ([2]; organic acid (citric acid) 10 w/w %, 6 hr): 5.0% | Reduction rate (%) of calcium level in the serum ([3]; organic acid: citric acid (pH 4) + Ryoto-Sugar Ester R-970, 2 hr): 11.4% | Reduction rate (%) of calcium level in the serum ([3]; organic acid: citric acid (pH 4) + Ryoto-Sugar Ester R-970, 4 hr): 19.6% | Reduction rate (%) of calcium level in the serum ([3]; organic acid: citric acid (pH 4) + Ryoto-Sugar Ester R-970, 6 hr): 8.4% | Reduction rate (%) of calcium level in the serum ([3]; organic acid: lactic acid (pH 4) + Ryoto-Sugar Ester R-970, 2 hr): 17.0% | Reduction rate (%) of calcium level in the serum ([3]; organic acid: lactic acid (pH 4) + Ryoto-Sugar Ester R-970, 4 hr): 10.6% | Reduction rate (%) of calcium level in the serum ([3]; organic acid: lactic acid (pH 4) + Ryoto-Sugar Ester R-970, 6 hr): 5.4% | Reduction rate (%) of calcium level in the serum ([3]; organic acid: malic acid (pH 4) + Ryoto-Sugar Ester R-970, 2 hr): 18.6% | Reduction rate (%) of calcium level in the serum ([3]; organic acid: malic acid (pH 4) + Ryoto-Sugar Ester R-970, 4 hr): 13.0% | Reduction rate (%) of calcium level in the serum ([3]; organic acid: malic acid (pH 4) + Ryoto-Sugar Ester R-970, 6 hr): 7.0% | Reduction rate (%) of calcium level in the serum ([3]; organic acid: tartaric acid (pH 4) + Ryoto-Sugar Ester R-970, 2 hr): 12.2% | Reduction rate (%) of calcium level in the serum ([3]; organic acid: tartaric acid (pH 4) + Ryoto-Sugar Ester R-970, 4 hr): 8.0% | Reduction rate (%) of calcium level in the serum ([3]; organic acid: tartaric acid (pH 4) + Ryoto-Sugar Ester R-970, 6 hr): 3.4% | calcium level ([3]; sucrose fatty acid ester with citric, tartaric, lactic or malic acid): significantly reduced regardless of any organic acid to be used | Reduction rate (%) of calcium level in the serum ([4]; base Cacao butter, 2 hr): 12.5% | Reduction rate (%) of calcium level in the serum ([4]; base Cacao butter, 4 hr): 10.7% | Reduction rate (%) of calcium level in the serum ([4]; base Cacao butter, 6 hr): 8.3% | Reduction rate (%) of calcium level in the serum ([4]; base Pharmasol B-105, 2 hr): 13.4% | Reduction rate (%) of calcium level in the serum ([4]; base Pharmasol B-105, 4 hr): 14.8% | Reduction rate (%) of calcium level in the serum ([4]; base Pharmasol B-105, 6 hr): 10.6% | Reduction rate (%) of calcium level in the serum ([4]; base Witepsol H-15, 2 hr): 16.8% | Reduction rate (%) of calcium level in the serum ([4]; base Witepsol H-15, 4 hr): 17.7% | Reduction rate (%) of calcium level in the serum ([4]; base Witepsol H-15, 6 hr): 10.4% | Reduction rate (%) of calcium level in the serum ([4]; base Witepsol S-55, 2 hr): 16.5% | Reduction rate (%) of calcium level in the serum ([4]; base Witepsol S-55, 4 hr): 22.5% | Reduction rate (%) of calcium level in the serum ([4]; base Witepsol S-55, 6 hr): 13.0% | Reduction rate (%) of calcium level in the serum ([4]; base Witepsol W-35, 2 hr): 6.6% | Reduction rate (%) of calcium level in the serum ([4]; base Witepsol W-35, 4 hr): 20.4% | Reduction rate (%) of calcium level in the serum ([4]; base Witepsol W-35, 6 hr): 13.2% | promotion effect on absorption of calcitonin ([4]; combination of sucrose fatty acid ester and citric acid, five bases): extremely excellent promotion effect on absorption of calcitonin regardless of any base to be used | promotion effect of a combination of a sucrose fatty acid ester and citric acid ([5]; pH of the solution 3.0 to 5.5): observed in the cases of pH 3.0 to 5.5, and the effects thereof were not significantly different in the cases of pH 3.0 to 4.5 | Reduction rate (%) of calcium level in the serum ([5]; pH of the solution in suppository 3.0, 2 hr): 11.0% | Reduction rate (%) of calcium level in the serum ([5]; pH of the solution in suppository 3.0, 4 hr): 22.0% | Reduction rate (%) of calcium level in the serum ([5]; pH of the solution in suppository 3.0, 6 hr): 8.7% | Reduction rate (%) of calcium level in the serum ([5]; pH of the solution in suppository 3.5, 2 hr): 9.4% | Reduction rate (%) of calcium level in the serum ([5]; pH of the solution in suppository 3.5, 4 hr): 19.8% | Reduction rate (%) of calcium level in the serum ([5]; pH of the solution in suppository 3.5, 6 hr): 8.8% | Reduction rate (%) of calcium level in the serum ([5]; pH of the solution in suppository 4.0, 2 hr): 9.4% | Reduction rate (%) of calcium level in the serum ([5]; pH of the solution in suppository 4.0, 4 hr): 20.2% | Reduction rate (%) of calcium level in the serum ([5]; pH of the solution in suppository 4.0, 6 hr): 10.2% | Reduction rate (%) of calcium level in the serum ([5]; pH of the solution in suppository 4.5, 2 hr): 9.5% | Reduction rate (%) of calcium level in the serum ([5]; pH of the solution in suppository 4.5, 4 hr): 22.8% | Reduction rate (%) of calcium level in the serum ([5]; pH of the solution in suppository 4.5, 6 hr): 9.1% | Reduction rate (%) of calcium level in the serum ([5]; pH of the solution in suppository 5.0, 2 hr): 10.2% | Reduction rate (%) of calcium level in the serum ([5]; pH of the solution in suppository 5.0, 4 hr): 11.4% | Reduction rate (%) of calcium level in the serum ([5]; pH of the solution in suppository 5.0, 6 hr): 2.7% | Reduction rate (%) of calcium level in the serum ([5]; pH of the solution in suppository 5.5, 2 hr): 8.1% | Reduction rate (%) of calcium level in the serum ([5]; pH of the solution in suppository 5.5, 4 hr): 13.2% | Reduction rate (%) of calcium level in the serum ([5]; pH of the solution in suppository 5.5, 6 hr): 4.3% | Reduction rate (%) of calcium level in the serum ([6]; Control: only human calcitonin, no citric acid nor sucrose fatty acid ester, 2 hr): 2.6% | Reduction rate (%) of calcium level in the serum ([6]; Control: only human calcitonin, no citric acid nor sucrose fatty acid ester, 4 hr): 2.2% | Reduction rate (%) of calcium level in the serum ([6]; Control: only human calcitonin, no citric acid nor sucrose fatty acid ester, 6 hr): 3.8% | Reduction rate (%) of calcium level in the serum ([6]; added: citric acid only, 2 hr): 9.5% | Reduction rate (%) of calcium level in the serum ([6]; added: citric acid only, 4 hr): 8.0% | Reduction rate (%) of calcium level in the serum ([6]; added: citric acid only, 6 hr): 5.7% | Reduction rate (%) of calcium level in the serum ([6]; added: sucrose fatty acid ester (S-970) and citric acid, base Witepsol S-55, 2 hr): 14.9% | Reduction rate (%) of calcium level in the serum ([6]; added: sucrose fatty acid ester (S-970) and citric acid, base Witepsol S-55, 4 hr): 19.5% | Reduction rate (%) of calcium level in the serum ([6]; added: sucrose fatty acid ester (S-970) and citric acid, base Witepsol S-55, 6 hr): 11.1% | Reduction rate (%) of calcium level in the serum ([6]; added: sucrose fatty acid ester (S-970) only, 2 hr): 10.6% | Reduction rate (%) of calcium level in the serum ([6]; added: sucrose fatty acid ester (S-970) only, 4 hr): 10.5% | Reduction rate (%) of calcium level in the serum ([6]; added: sucrose fatty acid ester (S-970) only, 6 hr): 10.7% | calcitonin-absorption promotion effects, on the basis of the reduction rate of the calcium level in the serum ([6]; combination of sucrose fatty acid ester and citric acid compared with either only): far superior
